According to publication PMC6433934, “Preclinical Evaluation of Bispecific Adaptor Molecule Controlled Folate Receptor CAR-T Cell Therapy With Special Focus on Pediatric Malignancies” (Frontiers in Oncology, 2019):

Assays:
HOS-143b = assay: Kinetics of specific lysis at varying E/T ratios, 10 nM EC17; format: cell-based, human; settings: 10 nM EC17, E2-CAR-T cells, E/T 1:27 to 3:1, 16 and 48 h
Description: For an EC17 dose response study, FR+ cancer cell lines (KB, MDA-MB-231, HOS-FRα, THP1-FRβ, OV90) were co-cultured with EGFRt-sorted E2-CAR-T cells at an effector-to-target (E/T) ratio of 1:1 in the presence of EC17 ranging from 0.1 pM to 100 μM in 10-fold increments. After 24 h of co-culture, supernatants were harvested to determine target cell killing by Promega's CytoTox 96® LDH assay kit and expressed as specific lysis (%) normalized to basal levels in the absence of EC17. To study the kinetics of T cell activation and FR correlation in vitro, co-cultures were carried out in FR+/- cell lines at varying E/T ratios (1:27, 1:9, 1:3, 1:1, 3:1) in the continuous presence of 10 nM EC17. The kinetics of target cell killing (i.e., % specific lysis) were quantified after 16 and 48 h of co-culture and normalized to basal levels in the absence of EC17 at defined E/T ratios. Meanwhile, a portion of the supernatants was taken after 44 h of co-culture for measurement of IFNγ, IL-2, and TNFα. The LEGENDplex™ human Th1 cytokine panel (BioLegend, San Diego, CA) was used to determine CAR-T cell derived cytokines.

[1] = tested on: HOS-FRα tumor-bearing mice; assay: Toxicity and CRS rescue with sodium fluorescein; format: in vivo; settings: ~2.5 million CD8 and ~33 million CD4 E2-CAR-T cells
Description: Depending on the CAR-T cell dose and how EC17 is administered, tumor-bearing mice receiving FITC-specific CAR-T cells can experience severe CRS and varying degrees of body weight loss ([27], [33], [34]). Therefore, we developed a CRS grading system (0–5 scale) to empirically assess CRS toxicity from animals' gross morphology and social behavior to allow for better timing of CRS rescue. While grades 0 and 5 indicated normal (no CRS) or death (due to severe CRS), respectively, grades 1, 2, and 3–4 were considered mild, light-to-moderate, and severe CRS. In addition, all EC17 doses were intentionally given toward the end of any given day to allow potential CRS symptoms to develop overnight. On the days immediately following each EC17 dose, animals were scored and rescue agents such as sodium fluorescein, folic acid and leucovorin were used to mitigate CRS toxicity ([33]). In this particular instance, a batch of E2-CAR-T cells with a high EGFRt+ CD4/CD8 ratio (~93:7) was given to HOS-FRα tumor-bearing mice at a mixture of ~2.5 million CD8 and ~33 million CD4 on day 0. When EC17 was dosed, respectively, at 500, 100, and 500 nmol/kg on days 3, 10, and 12, low CRS (grades 1–2) was noted on days 4 and 11 but high CRS (grade 3) was noted on day 13. To mitigate the severe CRS toxicity, sodium fluorescein was intravenously administrated at ~96 mg/kg in the morning of day 13 and mouse plasma samples were collected 6 h later for analysis of CRS-associated cytokines.

FRα = target: T1, FRα (Homo sapiens, UniProt P15328); assay: 3H-EC17 cell-based radioligand binding, KB cells; settings: ^3H-EC17, KB cells, 2 h at 37°C, from molecules bound per cell
T1 construct: KB (FRα-expressing human cervical carcinoma with HeLa markers); endogenous in cells; host or cells: KB cells (human cervical carcinoma with HeLa markers)
Description: Unless otherwise noted, all FR+ and FR-negative cancer cell lines were, respectively, maintained in RPMI-1640 medium (Gibco BRL) supplemented with 10% heat-inactivated fetal calf serum without (FFRPMI) or with (RPMI) 2.4 μM folic acid (FA). KB (FRα-expressing human cervical carcinoma with HeLa markers) and CHO-β (Chinese hamster ovary cells transfected with human FRβ) were used as the sources of FRα and FRβ for radioligand binding assays, respectively ([18]). MDA-MB-231 represents a FRα+ subclone of human TNBC cell line. For AML studies, the green fluorescent protein (GFP)-expressing isogenic pairs of FRβ-positive (THP1-FRβ) and FR-negative (THP1-FG12) cell lines were kindly provided by Dr. Manohar Ratnam (The University of Toledo, Toledo, OH). […]
The bispecific affinities of EC17 CAM were assessed using ^3H-EC17 in cell-based radioligand binding assays. […] The whole cell lysates were quantitated for the level of radioactivity and cellular protein content by standard Pierce BCA protein assay. The number of ^3H-EC17 molecules bound per cell was calculated to determine the dissociation constants (Kd) for FRα (KB) and FRβ (CHO-β), respectively. […] Afterwards, the cells were washed 4x with PBS, lysed with 0.1% Triton X-100 plus 0.1 N NaOH and counted in a scintillation counter. […]

T1 sequence (P15328 25-257): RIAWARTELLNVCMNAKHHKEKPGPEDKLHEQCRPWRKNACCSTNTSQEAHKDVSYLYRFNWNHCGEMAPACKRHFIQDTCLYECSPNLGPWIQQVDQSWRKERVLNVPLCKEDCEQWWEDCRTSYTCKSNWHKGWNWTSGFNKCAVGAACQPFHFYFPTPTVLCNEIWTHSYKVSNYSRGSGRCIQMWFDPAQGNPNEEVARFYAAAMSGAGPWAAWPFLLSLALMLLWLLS

Compound: Nc1nc2ncc(CNc3ccc(C(=O)NC(CCC(=O)NCCNC(=S)Nc4ccc(-c5c6ccc(=O)cc-6oc6cc(O)ccc56)c(C(=O)O)c4)C(=O)O)cc3)nc2c(=O)[nH]1 (stereo not shown) [EC17, FA-(γ)-ethylenediamine-FITC]
- specific lysis of FR-negative cells (HOS-143b): essentially unharmed
- CRS grade ([1]; day 13, after EC17 500 nmol/kg on day 12): 3
- CRS grade ([1]; days 4 and 11, after EC17 500 and 100 nmol/kg on days 3 and 10): 1–2
- Kd (FRα): 1.7 nM
